Reference: PubChem BioAssay AID272 (DTP/NCI, 2004)
Values joined by “and” are separate entries in the source; they are usually repeats but may differ in a detail not shown here. Identical values can stand only once. Results filed as inconclusive are left out.

Tested on: Lewis lung carcinoma i.m., BDF1 mice, T/C %
Assay: NCI In Vivo Anticancer Drug Screen. Data for tumor model Lewis Lung Carcinoma (intramuscular) in B6D2F1 (BDF1) mice
How it was run: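 Tumour-bearing mice were dosed with compound, and either their survival or their tumour size was measured. Results were expressed relative to vehicle-treated controls as T/C.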

## O=C1CN(CCN2CC(=O)NC(=O)C2)CC(=O)N1
endpoint: mean tumor weight, dose: 25.0 mg/kg/injection, schedule: Q01DX011 (ip), vehicle: steriod suspending solution, higher = larger tumour
  T/C: 68 % of control and 80 % of control
endpoint: median survival time, dose: 12.5 mg/kg/injection, schedule: Q01DX011 (ip), vehicle: steriod suspending solution, higher = longer survival
  T/C: 111 % of control and 117 % of control
endpoint: median survival time, dose: 25.0 mg/kg/injection, schedule: Q01DX011 (ip), vehicle: steriod suspending solution, higher = longer survival
  T/C: 110 % of control and 114 % of control

## CCCCCCCCCCCCCCCC(=O)OCC1OC(n2ccc(N)nc2=O)C(O)C1O (centres undefined)
endpoint: mean tumor weight (est.), dose: 7.5 mg/kg/injection, schedule: Q01DX009 (ip), vehicle: saline, higher = larger tumour
  T/C: 76 % of control
endpoint: mean tumor weight (est.), dose: 15.0 mg/kg/injection, schedule: Q01DX009 (ip), vehicle: saline, higher = larger tumour
  T/C: 39 % of control
endpoint: mean tumor weight (est.), dose: 25.0 mg/kg/injection, schedule: Q04DX003 (ip), vehicle: saline, higher = larger tumour
  T/C: 67 % of control
endpoint: mean tumor weight (est.), dose: 37.5 mg/kg/injection, schedule: Q01DX001 (ip), vehicle: saline, higher = larger tumour
  T/C: 45 % of control
endpoint: mean tumor weight (est.), dose: 50.0 mg/kg/injection, schedule: Q04DX003 (ip), vehicle: saline, higher = larger tumour
  T/C: 19 % of control
endpoint: mean tumor weight (est.), dose: 75.0 mg/kg/injection, schedule: Q01DX001 (ip), vehicle: saline, higher = larger tumour
  T/C: 19 % of control
endpoint: mean tumor weight (est.), dose: 150.0 mg/kg/injection, schedule: Q01DX001 (ip), vehicle: saline, higher = larger tumour
  T/C: 46 % of control
endpoint: median survival time, dose: 37.5 mg/kg/injection, schedule: Q01DX001 (ip), vehicle: saline, higher = longer survival
  T/C: 93 % of control
endpoint: median survival time, dose: 150.0 mg/kg/injection, schedule: Q01DX001 (ip), vehicle: saline, higher = longer survival
  T/C: 113 % of control

## CC1CC(C)(O)CC(C(O)CC2CC(=O)NC(=O)C2)C1=O (centres undefined)
endpoint: mean tumor weight, dose: 0.1 mg/kg/injection, schedule: Q01DX011 (ip), vehicle: saline, higher = larger tumour
  T/C: 56 % of control
endpoint: median survival time, dose: 0.1 mg/kg/injection, schedule: Q01DX011 (ip), vehicle: saline, higher = longer survival
  T/C: 90 % of control

## Cc1nn(CCO)c(C)c1N=[N+]([O-])c1c(C)nn(CCO)c1C
endpoint: median survival time, dose: 15.0 mg/kg/injection, schedule: Q02DX011 (ip), vehicle: saline with Tween-80, higher = longer survival
  T/C: 105 % of control
endpoint: median survival time, dose: 30.0 mg/kg/injection, schedule: Q02DX011 (ip), vehicle: saline with Tween-80, higher = longer survival
  T/C: 86 % of control
endpoint: median survival time, dose: 60.0 mg/kg/injection, schedule: Q02DX011 (ip), vehicle: saline with Tween-80, higher = longer survival
  T/C: 97 % of control

## Cc1cc[n+](CCc2ccccc2)cc1
endpoint: mean tumor weight (est.), dose: 12.5 mg/kg/injection, schedule: Q01DX011 (ip), vehicle: saline, higher = larger tumour
  T/C: 76 % of control
endpoint: mean tumor weight (est.), dose: 25.0 mg/kg/injection, schedule: Q01DX011 (ip), vehicle: saline, higher = larger tumour
  T/C: 95 % of control
endpoint: mean tumor weight (est.), dose: 50.0 mg/kg/injection, schedule: Q01DX011 (ip), vehicle: saline, higher = larger tumour
  T/C: 75 % of control
endpoint: median survival time, dose: 12.5 mg/kg/injection, schedule: Q01DX011 (ip), vehicle: saline, higher = longer survival
  T/C: 94 % of control
endpoint: median survival time, dose: 25.0 mg/kg/injection, schedule: Q01DX011 (ip), vehicle: saline, higher = longer survival
  T/C: 102 % of control
endpoint: median survival time, dose: 50.0 mg/kg/injection, schedule: Q01DX011 (ip), vehicle: saline, higher = longer survival
  T/C: 106 % of control

## Nc1ncc(N)c(N)n1
endpoint: mean tumor weight (est.), dose: 40.0 mg/kg/injection, schedule: Q01DX011 (ip), vehicle: saline, higher = larger tumour
  T/C: 80 % of control
endpoint: mean tumor weight (est.), dose: 80.0 mg/kg/injection, schedule: Q01DX011 (ip), vehicle: saline, higher = larger tumour
  T/C: 88 % of control
endpoint: mean tumor weight (est.), dose: 160.0 mg/kg/injection, schedule: Q01DX011 (ip), vehicle: saline, higher = larger tumour
  T/C: 119 % of control
endpoint: median survival time, dose: 40.0 mg/kg/injection, schedule: Q01DX011 (ip), vehicle: saline, higher = longer survival
  T/C: 103 % of control
endpoint: median survival time, dose: 80.0 mg/kg/injection, schedule: Q01DX011 (ip), vehicle: saline, higher = longer survival
  T/C: 98 % of control
endpoint: median survival time, dose: 160.0 mg/kg/injection, schedule: Q01DX011 (ip), vehicle: saline, higher = longer survival
  T/C: 94 % of control

## COc1c(C)c2c(c(O)c1C/C=C(\C)CCC(=O)O)C(=O)OC2
endpoint: mean tumor weight (est.), dose: 25.0 mg/kg/injection, schedule: Q01DX011 (ip), vehicle: saline with Tween-80, higher = larger tumour
  T/C: 98 % of control
endpoint: mean tumor weight (est.), dose: 50.0 mg/kg/injection, schedule: Q01DX011 (ip), vehicle: saline with Tween-80, higher = larger tumour
  T/C: 71 % of control
endpoint: mean tumor weight (est.), dose: 100.0 mg/kg/injection, schedule: Q01DX011 (ip), vehicle: saline with Tween-80, higher = larger tumour
  T/C: 57 % of control
endpoint: mean tumor weight (est.), dose: 200.0 mg/kg/injection, schedule: Q01DX011 (ip), vehicle: saline with Tween-80, higher = larger tumour
  T/C: 27 % of control
endpoint: median survival time, dose: 25.0 mg/kg/injection, schedule: Q01DX011 (ip), vehicle: saline with Tween-80, higher = longer survival
  T/C: 97 % of control
endpoint: median survival time, dose: 50.0 mg/kg/injection, schedule: Q01DX011 (ip), vehicle: saline with Tween-80, higher = longer survival
  T/C: 106 % of control
endpoint: median survival time, dose: 100.0 mg/kg/injection, schedule: Q01DX011 (ip), vehicle: saline with Tween-80, higher = longer survival
  T/C: 100 % of control

## CC(=O)OCC1OC(n2ncc(=O)[nH]c2=O)C(OC(C)=O)C1OC(C)=O (centres undefined)
endpoint: mean tumor weight (est.), dose: 25.0 mg/kg/injection, schedule: Q01DX011 (ip), vehicle: water, higher = larger tumour
  T/C: 89 % of control
endpoint: mean tumor weight (est.), dose: 50.0 mg/kg/injection, schedule: Q01DX011 (ip), vehicle: water, higher = larger tumour
  T/C: 62 % of control
endpoint: mean tumor weight (est.), dose: 200.0 mg/kg/injection, schedule: Q01DX011 (ip), vehicle: water, higher = larger tumour
  T/C: 75 % of control
endpoint: mean tumor weight (est.), dose: 400.0 mg/kg/injection, schedule: Q01DX011 (ip), vehicle: water, higher = larger tumour
  T/C: 85 % of control
endpoint: mean tumor weight (est.), dose: 800.0 mg/kg/injection, schedule: Q01DX011 (ip), vehicle: water, higher = larger tumour
  T/C: 40 % of control
endpoint: mean tumor weight (est.), dose: 1600.0 mg/kg/injection, schedule: Q01DX011 (ip), vehicle: water, higher = larger tumour
  T/C: 56 % of control
endpoint: mean tumor weight, dose: 25.0 mg/kg/injection, schedule: Q01DX011 (ip), vehicle: Klucel (hydroxypropylcellulose) (HPC), higher = larger tumour
  T/C: 78 % of control
endpoint: mean tumor weight, dose: 50.0 mg/kg/injection, schedule: Q01DX011 (ip), vehicle: Klucel (hydroxypropylcellulose) (HPC), higher = larger tumour
  T/C: 71 % of control
endpoint: mean tumor weight, dose: 100.0 mg/kg/injection, schedule: Q01DX011 (ip), vehicle: Klucel (hydroxypropylcellulose) (HPC), higher = larger tumour
  T/C: 65 % of control
endpoint: mean tumor weight, dose: 200.0 mg/kg/injection, schedule: Q01DX011 (ip), vehicle: Klucel (hydroxypropylcellulose) (HPC), higher = larger tumour
  T/C: 68 % of control
endpoint: mean tumor weight, dose: 400.0 mg/kg/injection, schedule: Q01DX011 (ip), vehicle: Klucel (hydroxypropylcellulose) (HPC), higher = larger tumour
  T/C: 93 % of control
endpoint: mean tumor weight, dose: 800.0 mg/kg/injection, schedule: Q01DX011 (ip), vehicle: Klucel (hydroxypropylcellulose) (HPC), higher = larger tumour
  T/C: 37 % of control
endpoint: median survival time, dose: 25.0 mg/kg/injection, schedule: Q01DX011 (ip), vehicle: Klucel (hydroxypropylcellulose) (HPC), higher = longer survival
  T/C: 110 % of control
endpoint: median survival time, dose: 25.0 mg/kg/injection, schedule: Q01DX011 (ip), vehicle: water, higher = longer survival
  T/C: 92 % of control
endpoint: median survival time, dose: 50.0 mg/kg/injection, schedule: Q01DX011 (ip), vehicle: Klucel (hydroxypropylcellulose) (HPC), higher = longer survival
  T/C: 94 % of control
endpoint: median survival time, dose: 50.0 mg/kg/injection, schedule: Q01DX011 (ip), vehicle: water, higher = longer survival
  T/C: 103 % of control
endpoint: median survival time, dose: 100.0 mg/kg/injection, schedule: Q01DX011 (ip), vehicle: Klucel (hydroxypropylcellulose) (HPC), higher = longer survival
  T/C: 112 % of control
endpoint: median survival time, dose: 200.0 mg/kg/injection, schedule: Q01DX011 (ip), vehicle: water, higher = longer survival
  T/C: 98 % of control
endpoint: median survival time, dose: 400.0 mg/kg/injection, schedule: Q01DX011 (ip), vehicle: Klucel (hydroxypropylcellulose) (HPC), higher = longer survival
  T/C: 104 % of control
endpoint: median survival time, dose: 400.0 mg/kg/injection, schedule: Q01DX011 (ip), vehicle: water, higher = longer survival
  T/C: 121 % of control
endpoint: median survival time, dose: 800.0 mg/kg/injection, schedule: Q01DX011 (ip), vehicle: Klucel (hydroxypropylcellulose) (HPC), higher = longer survival
  T/C: 124 % of control
endpoint: median survival time, dose: 800.0 mg/kg/injection, schedule: Q01DX011 (ip), vehicle: water, higher = longer survival
  T/C: 88 % of control
endpoint: median survival time, dose: 1600.0 mg/kg/injection, schedule: Q01DX011 (ip), vehicle: water, higher = longer survival
  T/C: 111 % of control

## CC(=O)OC1C(=O)C(O)C(C)OC1O[C@@H]1C[C@@]2(C)[C@@H]3CC=C4[C@@H](C[C@H](O)C(=O)C4(C)C)[C@]3(C)C(=O)C[C@]2(C)[C@H]1[C@@](C)(O)C(=O)/C=C/C(C)(C)O (some centres undefined)
endpoint: mean tumor weight, dose: 0.5 mg/kg/injection, schedule: Q01DX011 (ip), vehicle: saline, higher = larger tumour
  T/C: 41 % of control
endpoint: mean tumor weight, dose: 1.0 mg/kg/injection, schedule: Q01DX011 (ip), vehicle: saline, higher = larger tumour
  T/C: 32 % of control
endpoint: mean tumor weight, dose: 2.0 mg/kg/injection, schedule: Q01DX011 (ip), vehicle: saline, higher = larger tumour
  T/C: 41 % of control
endpoint: median survival time, dose: 0.5 mg/kg/injection, schedule: Q01DX011 (ip), vehicle: saline, higher = longer survival
  T/C: 113 % of control
endpoint: median survival time, dose: 1.0 mg/kg/injection, schedule: Q01DX011 (ip), vehicle: saline, higher = longer survival
  T/C: 89 % of control
endpoint: median survival time, dose: 2.0 mg/kg/injection, schedule: Q01DX011 (ip), vehicle: saline, higher = longer survival
  T/C: 91 % of control

## COc1cc2c3c(c4ccc(OC)c(OC)c4c2cc1OC)CN1CCC[C@@H]1C3
endpoint: mean tumor weight, dose: 1.0 mg/kg/injection, schedule: Q01DX011 (ip), vehicle: Klucel (hydroxypropylcellulose) (HPC), higher = larger tumour
  T/C: 88 % of control and 93 % of control
endpoint: mean tumor weight, dose: 2.0 mg/kg/injection, schedule: Q01DX011 (ip), vehicle: Klucel (hydroxypropylcellulose) (HPC), higher = larger tumour
  T/C: 69 % of control and 77 % of control
endpoint: mean tumor weight, dose: 4.0 mg/kg/injection, schedule: Q01DX011 (ip), vehicle: Klucel (hydroxypropylcellulose) (HPC), higher = larger tumour
  T/C: 85 % of control and 89 % of control
endpoint: mean tumor weight, dose: 8.0 mg/kg/injection, schedule: Q01DX011 (ip), vehicle: Klucel (hydroxypropylcellulose) (HPC), higher = larger tumour
  T/C: 64 % of control and 73 % of control
endpoint: mean tumor weight, dose: 16.0 mg/kg/injection, schedule: Q01DX011 (ip), vehicle: Klucel (hydroxypropylcellulose) (HPC), higher = larger tumour
  T/C: 41 % of control
endpoint: median survival time, dose: 1.0 mg/kg/injection, schedule: Q01DX011 (ip), vehicle: Klucel (hydroxypropylcellulose) (HPC), higher = longer survival
  T/C: 102 % of control
endpoint: median survival time, dose: 2.0 mg/kg/injection, schedule: Q01DX011 (ip), vehicle: Klucel (hydroxypropylcellulose) (HPC), higher = longer survival
  T/C: 86 % of control
endpoint: median survival time, dose: 4.0 mg/kg/injection, schedule: Q01DX011 (ip), vehicle: Klucel (hydroxypropylcellulose) (HPC), higher = longer survival
  T/C: 114 % of control
endpoint: median survival time, dose: 8.0 mg/kg/injection, schedule: Q01DX011 (ip), vehicle: Klucel (hydroxypropylcellulose) (HPC), higher = longer survival
  T/C: 100 % of control
